pIC50: −log10 of the molar value.
Biological target: T1, human NaV 1.8 (Homo sapiens, UniProt Q9Y5Y9)
T1 construct: expressed in transfected cells; host or cells: HEK (recombinant cell line)
Test: Automated whole-cell patch clamp (Qube384) voltage-clamp recordings of sodium currents in HEK-NaV1.8 cell line
Assay type: cell-based
Conditions: read-out: Potency category (human NaV 1.8 IC50)
Description: Electrophysiology: Voltage-Clamp Recordings
The following NaV1.8 recombinant cell line was used for recordings: HEK-NaV1.8 (NM_006514.1) with b3 (NM_018400.3).
Sodium currents were measured using the patch clamp technique in the whole-cell configuration using the Qube384 (Sophion A/S, Copenhagen, Denmark) automated voltage clamp platform. “Multi hole” plates were used for the cell line expressing NaV1.8 while “single hole” plates were used for the recombinant cell lines expressing the other subtypes. Appropriate filters (for minimum seal resistance and minimum current size) and series resistance compensation (for high quality sodium channel recordings) were applied. Data was collected at ambient room temperature or 19° C.
The recording extracellular solution contained (in mM): NaCl 145 mM, KCl 4 mM, CaCl2 2 mM, MgCl2 1 mM, HEPES 10 mM, Glucose 10 mM, pH 7.4 (NaOH). The intracellular recording solution contained (in mM): CsF 120 mM, CsCl 20 mM, NaCl 10 mM, EGTA 10 mM, HEPES 10 mM, pH 7.2 (CsOH). Currents were recorded at 25 kHz sampling frequency and filtered at 5 kHz. Series resistance compensation was applied at 65%.
Vehicle (VEH) is the control condition where cells are exposed to 0.3% DMSO without compound. All runs include VEH controls being exposed to the same voltage protocols to assess non-compound related phenomena such as run down and then used to isolate compound dependent effects on currents.
To check for state-dependent inhibition, the following voltage-sequence was applied every 20 seconds:
From a resting membrane potential of −120 mV, the first test pulse (P1; 20 ms to −10 mV) was applied to check for channels in the Resting State followed by a brief recovery (100 ms to −120 mV), then holding the membrane voltage to V1/2 (4 seconds at voltage to obtain half the channel at Rest and half Inactivated) with a subsequent second test pulse (P2; 20 ms to −10 mV) to check for channels in the Inactivated State, followed by another brief recovery (20 ms to −120 mV) and a final third test pulse (P3; 20 ms to −10 mV) to check for recovered channels.
To check for frequency-dependent inhibition, a 10 Hz protocol and a 20 Hz protocol were applied; namely,
From a resting membrane potential of −120 mV, 40-pulses (10 ms to −10 mV) was applied at 10 Hz (at 100 ms between pulses) and then at 20 Hz (at 50 ms between pulses).
Each parameter was recorded (P1, P2, P3, P40 from 10 Hz and P40 from 20 Hz) during a control period (lasting 5 minutes) when establishing the baseline and during compound period (lasting ~12 minutes) when test compound (or vehicle) was applied. For each parameter, the value at the end of the compound period was normalized to the vehicle baseline; as follows
To adjust for any variance in the Na^+ current signal during the compound period (owing to cumulative inactivation independent of compound or shifts in biophysics over time), a dedicated segment of the recording wells in each 384 plate were dedicated to having only vehicle exposure. These vehicle-only recordings were used to correct for any apparent “run-up” or “run-down” in the experiment.
The adjusted inhibition was calculated as follows: […]
Percent inhibition was determined and IC50 values were calculated using a 4 parameter logistic model within XLFit Software (IDBS, Boston MA): F
[formula] where A and B are the maximal and minimum inhibition respectively, C is the IC50 concentration and D is the (Hill) slope.

T1 sequence (Q9Y5Y9 whole entry): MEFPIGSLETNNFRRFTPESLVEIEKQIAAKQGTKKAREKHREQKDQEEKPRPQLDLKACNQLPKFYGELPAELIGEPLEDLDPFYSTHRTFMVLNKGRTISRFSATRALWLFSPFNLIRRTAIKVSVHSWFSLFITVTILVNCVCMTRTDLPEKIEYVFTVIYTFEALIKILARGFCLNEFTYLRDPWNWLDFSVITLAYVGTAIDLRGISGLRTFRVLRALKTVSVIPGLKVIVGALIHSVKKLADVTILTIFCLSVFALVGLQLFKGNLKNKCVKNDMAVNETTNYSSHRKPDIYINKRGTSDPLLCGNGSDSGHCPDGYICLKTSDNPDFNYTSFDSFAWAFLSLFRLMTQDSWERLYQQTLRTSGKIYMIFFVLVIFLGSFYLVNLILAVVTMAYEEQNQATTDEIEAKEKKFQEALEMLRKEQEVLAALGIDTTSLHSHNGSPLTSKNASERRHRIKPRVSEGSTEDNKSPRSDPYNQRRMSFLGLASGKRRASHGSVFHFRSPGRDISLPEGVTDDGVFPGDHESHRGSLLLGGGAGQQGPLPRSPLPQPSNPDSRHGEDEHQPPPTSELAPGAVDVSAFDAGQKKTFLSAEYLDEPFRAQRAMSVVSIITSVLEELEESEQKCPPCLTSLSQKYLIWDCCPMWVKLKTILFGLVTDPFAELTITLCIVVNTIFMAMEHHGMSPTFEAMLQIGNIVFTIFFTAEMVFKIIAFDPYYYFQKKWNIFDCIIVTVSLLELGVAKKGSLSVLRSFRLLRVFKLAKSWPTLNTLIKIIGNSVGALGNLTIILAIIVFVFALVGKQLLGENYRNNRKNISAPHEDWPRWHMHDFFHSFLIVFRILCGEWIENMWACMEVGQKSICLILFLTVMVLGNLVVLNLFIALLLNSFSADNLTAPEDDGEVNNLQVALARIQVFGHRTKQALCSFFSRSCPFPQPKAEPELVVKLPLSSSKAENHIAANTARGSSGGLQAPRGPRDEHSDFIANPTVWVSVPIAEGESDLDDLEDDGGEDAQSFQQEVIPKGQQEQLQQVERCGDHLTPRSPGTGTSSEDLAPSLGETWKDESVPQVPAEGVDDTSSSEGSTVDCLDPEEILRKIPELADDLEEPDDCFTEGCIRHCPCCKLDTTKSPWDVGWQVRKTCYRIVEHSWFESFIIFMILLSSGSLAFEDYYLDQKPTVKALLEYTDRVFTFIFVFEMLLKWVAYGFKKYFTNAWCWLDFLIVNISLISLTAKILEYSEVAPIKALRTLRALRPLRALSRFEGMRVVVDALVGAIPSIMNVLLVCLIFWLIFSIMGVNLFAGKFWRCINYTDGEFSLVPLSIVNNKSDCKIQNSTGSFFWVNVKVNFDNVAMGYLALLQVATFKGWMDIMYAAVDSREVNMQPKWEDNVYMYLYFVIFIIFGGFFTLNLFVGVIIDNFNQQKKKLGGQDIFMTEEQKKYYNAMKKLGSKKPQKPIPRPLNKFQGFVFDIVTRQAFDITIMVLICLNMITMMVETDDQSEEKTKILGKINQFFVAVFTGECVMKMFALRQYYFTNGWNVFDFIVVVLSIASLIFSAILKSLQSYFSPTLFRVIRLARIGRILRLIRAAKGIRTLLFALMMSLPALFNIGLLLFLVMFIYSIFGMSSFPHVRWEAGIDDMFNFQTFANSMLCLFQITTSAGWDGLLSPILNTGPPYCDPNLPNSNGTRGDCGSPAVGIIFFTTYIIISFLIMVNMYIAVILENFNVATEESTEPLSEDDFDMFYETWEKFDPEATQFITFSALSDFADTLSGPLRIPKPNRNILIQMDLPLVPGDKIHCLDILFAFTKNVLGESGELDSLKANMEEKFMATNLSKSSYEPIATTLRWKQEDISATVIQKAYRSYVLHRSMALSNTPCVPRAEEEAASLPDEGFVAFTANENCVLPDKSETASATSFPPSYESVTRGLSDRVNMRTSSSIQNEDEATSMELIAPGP

Compound	pIC50
C[C@H]1C[C@@H]1c1nn(CC2(C)CC(F)(F)C2)c(C(=O)Nc2ccnc([S@](C)(=N)=O)c2)c1C(F)(F)F (single isomer, unassigned) [Example 65a, 1-((3,3-Difluoro-1-methylcyclobutyl)methyl)-3-((trans)-2-methylcyclopropyl)-N-(2-(S-methylsulfonimidoyl)pyridin-4-yl)-4-(trifluoromethyl)-1H-pyrazole-5-carboxamide]	≥ 7.00
CC1(Cn2nc(C3CC3)c(C(F)(F)F)c2C(=O)Nc2cncc(S(C)(=N)=O)c2)CC(F)(F)C1 (single isomer, unassigned) [Example 46b, 3-cyclopropyl-1-((3,3-difluoro-1-methylcyclobutyl)methyl)-N-(5-(S-methylsulfonimidoyl)pyridin-3-yl)-4-(trifluoromethyl)-1H-pyrazole-5-carboxamide]	≥ 7.00
CC1(Cn2nc(C3(F)CC3)c(C(F)F)c2C(=O)Nc2ccc(F)c(S(C)(=N)=O)c2)CC(F)(F)C1 (single isomer, unassigned) [Example 133a, 1-((3,3-Difluoro-1-methylcyclobutyl)methyl)-4-(difluoromethyl)-N-(4-fluoro-3-(S-methylsulfonimidoyl)phenyl)-3-(1-fluorocyclopropyl)-1H-pyrazole-5-carboxamide]	≥ 7.00
CC1(Cn2nc(C3CC3)c(C(F)(F)F)c2C(=O)Nc2ccnc(S(C)(=N)=O)c2)CC(F)(F)C1 (single isomer, unassigned) [Example 1a, 3-cyclopropyl-1-((3,3-difluoro-1-methylcyclobutyl)methyl)-N-(2-(S-methylsulfonimidoyl)pyridin-4-yl)-4-(trifluoromethyl)-1H-pyrazole-5-carboxamide]	≥ 7.00
CS(=N)(=O)c1cc(NC(=O)c2c(C(F)(F)F)c(C3CC3)nn2CC23CC(CC2(F)F)C3)ccn1 (single isomer, unassigned) [Example 103a, 3-cyclopropyl-1-((2,2-difluorobicyclo[2.1.1]hexan-1-yl)methyl)-N-(2-(S-methylsulfonimidoyl)pyridin-4-yl)-4-(trifluoromethyl)-1H-pyrazole-5-carboxamide]	≥ 7.00
CC1(Cn2nc(C34CC(C3)C4)c(C(F)F)c2C(=O)Nc2ccnc(S(C)(=N)=O)c2)CC(F)(F)C1 (single isomer, unassigned) [Example 137a, 3-(Bicyclo[1.1.1]pentan-1-yl)-1-((3,3-difluoro-1-methylcyclobutyl)methyl)-4-(difluoromethyl)-N-(2-(S-methylsulfonimidoyl)pyridin-4-yl)-1H-pyrazole-5-carboxamide]	≥ 7.00
CC(=O)N1CC2(CCC2Cn2nc(C3CC3)c(C(F)(F)F)c2C(=O)Nc2ccnc(S(C)(=N)=O)c2)C1 (single isomer, unassigned) [Example 140b, 1-((2-Acetyl-2-azaspiro[3.3]heptan-5-yl)methyl)-3-cyclopropyl-N-(2-(S-methylsulfonimidoyl)pyridin-4-yl)-4-(trifluoromethyl)-1H-pyrazole-5-carboxamide]	6.00 to 7.00
C[S@@](=N)(=O)c1cc(NC(=O)c2c(C(F)(F)F)c(C3CC3)nn2C[C@H]2CC23CC3)ccn1 (single isomer, unassigned) [Example 78c, 3-cyclopropyl-N-(2-(S-methylsulfonimidoyl)pyridin-4-yl)-1-(spiro[2.2]pentan-1-ylmethyl)-4-(trifluoromethyl)-1H-pyrazole-5-carboxamide]	≥ 7.00
Cc1c(C(C)(F)F)nn(CC23CC(C(F)(F)F)(C2)C3)c1C(=O)Nc1ccnc(S(C)(=N)=O)c1 (single isomer, unassigned) [Example 15b, 3-(1,1-difluoroethyl)-4-methyl-N-(2-(S-methylsulfonimidoyl)pyridin-4-yl)-1-((3-(trifluoromethyl)bicyclo[1.1.1]pentan-1-yl)methyl)-1H-pyrazole-5-carboxamide]	≥ 7.00
CC1(Cn2nc(C3(F)CC3)c(C(F)(F)F)c2C(=O)Nc2cccc(S(C)(=O)=NC(=O)C3COC3)c2)CC(F)(F)C1 (single isomer, unassigned) [Example 150b, 1-((3,3-Difluoro-1-methylcyclobutyl)methyl)-3-(1-fluorocyclopropyl)-N-(3-(S-methyl-N-(oxetane-3-carbonyl)sulfonimidoyl)phenyl)-4-(trifluoromethyl)-1H-pyrazole-5-carboxamide]	≥ 7.00

Second part, the molecule after the results:

pIC50	Compound
≥ 7.00	CC1(Cn2nc(C3(F)CC3)c(C(F)(F)F)c2C(=O)Nc2ccnc(S(C)(=N)=O)c2)CC(F)(F)C1 (single isomer, unassigned) [Example 70b, 1-((3,3-Difluoro-1-methylcyclobutyl)methyl)-3-(1-fluorocyclopropyl)-N-(2-(S-methylsulfonimidoyl)pyridin-4-yl)-4-(trifluoromethyl)-1H-pyrazole-5-carboxamide]
5.00 to 6.00	CS(=N)(=O)c1cc(NC(=O)c2c(C(F)(F)F)c(C3CC3)nn2CC2CCC23CNC3)ccn1 (single isomer, unassigned) [Example 153a, 1-((2-Azaspiro[3.3]heptan-5-yl)methyl)-3-cyclopropyl-N-(2-(S-methylsulfonimidoyl)pyridin-4-yl)-4-(trifluoromethyl)-1H-pyrazole-5-carboxamide]
≥ 7.00	CS(=N)(=O)c1cc(NC(=O)c2c(C(F)(F)F)c(C3CC3)nn2CC2(F)CC3(CCC3)C2)ccn1 (single isomer, unassigned) [Example 21b, 3-cyclopropyl-1-((2-fluorospiro[3.3]heptan-2-yl)methyl)-N-(2-(S-methylsulfonimidoyl)pyridin-4-yl)-4-(trifluoromethyl)-1H-pyrazole-5-carboxamide]
≥ 7.00	CC1(Cn2nc(C3(F)CC3)c(C(F)(F)F)c2C(=O)Nc2cccc(S(=N)(=O)C(F)F)c2)CC(F)(F)C1 (single isomer, unassigned) [Example 130a, 1-((3,3-Difluoro-1-methylcyclobutyl)methyl)-N-(3-(S-(difluoromethyl)sulfonimidoyl)phenyl)-3-(1-fluorocyclopropyl)-4-(trifluoromethyl)-1H-pyrazole-5-carboxamide]
≥ 7.00	CC1(Cn2nc(C3CC3)c(C(F)(F)F)c2C(=O)Nc2ccnc(S(C)(=O)=NC[C@@H](O)CO)c2)CC(F)(F)C1 (stereo partly drawn) [Example 152, 3-Cyclopropyl-1-((3,3-difluoro-1-methylcyclobutyl)methyl)-N-(2-(N—((R)-2,3-dihydroxypropyl)-S-methylsulfonimidoyl)pyridin-4-yl)-4-(trifluoromethyl)-1H-pyrazole-5-carboxamide]
≥ 7.00	CC1(Cn2nc(C34CC(F)(C3)C4)c(C(F)(F)F)c2C(=O)Nc2ccnc(S(C)(=N)=O)c2)CC(F)(F)C1 (single isomer, unassigned) [Example 110a, 1-((3,3-Difluoro-1-methylcyclobutyl)methyl)-3-(3-fluorobicyclo[1.1.1]pentan-1-yl)-N-(2-(S-methylsulfonimidoyl)pyridin-4-yl)-4-(trifluoromethyl)-1H-pyrazole-5-carboxamide]
≥ 7.00	CS(=N)(=O)c1cc(NC(=O)c2c(C(F)(F)F)c(C3CC3)nn2CC23CC(F)(C2)C3)ccn1 (single isomer, unassigned) [Example 25a, 3-cyclopropyl-1-((3-fluorobicyclo[1.1.1]pentan-1-yl)methyl)-N-(2-(S-methylsulfonimidoyl)pyridin-4-yl)-4-(trifluoromethyl)-1H-pyrazole-5-carboxamide]
≥ 7.00	CC1(Cn2nc(C3CC4(CC4)C3)c(C(F)(F)F)c2C(=O)Nc2ccnc(S(C)(=N)=O)c2)CC(F)(F)C1 (single isomer, unassigned) [Example 61b, 1-((3,3-Difluoro-1-methylcyclobutyl)methyl)-N-(2-(S-methylsulfonimidoyl)pyridin-4-yl)-3-(spiro[2.3]hexan-5-yl)-4-(trifluoromethyl)-1H-pyrazole-5-carboxamide]

Reference: patent publication US12685726B2, “Sulfoximines as inhibitors of NaV1.8” (Gruenenthal GmbH, priority 2022, dated 2026)
